These results are taken from patent US20240174659A1, “COMPOUNDS AND METHODS FOR YAP/TEAD MODULATION AND INDICATIONS THEREFOR” (Opna Bio SA, priority 2021, published 2024).

Counter-ions that a name gives are not always drawn.

This experiment has as its system TEAD-dependent transcription. The experiment is described as follows: Inhibitor activity against TEAD-dependent transcription in a cell-based reporter assay (MSTO-211H+12XGTIIC luciferase). As to conditions: Homo sapiens; MSTO-211H+12XGTIIC cells, 24 hours incubation, luciferase luminescence normalized to cell viability fluorescence, geometric mean; read-out: MSTO-211H GMean IC50 (uM) Cell Assay Reporter Cell Variant: TEAD. An excerpt: Determine Inhibitor Activity Against TEAD-Dependent Transcription in a Cell-Based Reporter Assay
The human mesothelioma cell line MSTO-211H was stably transfected with a pGL4.21 plasmid containing a synthetic promoter with 12 copies of the GTIIC TEAD response element that drives the expression of a luciferase reporter gene^1 using Lipofectamine transfection reagent (Thermo Fisher). Transfected cells were selected using puromycin and single cell clones expressing this construct (referred to as MSTO-211H+12XGTIIC) were generated by limiting dilution. MSTO-211H cells was characterized by genetic alterations in key components of the Hippo pathway^2, resulting in up-regulation of YAP/TEAD-mediated transcription. […] To evaluate TEAD inhibitors, the MSTO-211H+12XGTIIC cell line was seeded in a 96-well plate in 50 μL of culture media at 1×10^4 cells per well and incubated at 37° C. overnight. Serial dilutions of compounds (in total volume of 50 μL of culture media) were added to the cells and incubated at 37° C. for 24 hours. Each plate included cells treated with DMSO as high controls and cells treated with 20 μM of the reference compound K-975 (a known TEAD inhibitor)^3 as low controls. Cell viability was assayed by the addition of 25 μL of CellTiter-Fluor reagent (Promega) followed by a 30-minute incubation at 37° C. and quantification of the fluorescence signal (Ex400/Em505). Subsequently, luciferase expression was assayed by the addition of 25 μL of ONE-Glo reagent (Promega) followed by a 10-minute incubation at room temperature and quantification of the luminescence signal. The luminescence signal was normalized to the fluorescence signal to correct for any loss in cell viability over the 24-hour compound incubation period. The percentage of inhibition of normalized luminescence signal, indicative of compound-mediated inhibition of TEAD-dependent transcription, at individual compound concentrations relative to high and low controls was calculated. The data were analyzed by using nonlinear regression to generate IC50 values for individual compounds.
In general terms: In a reporter assay the amount or activity of a reporter protein is the signal.

As a reminder, the IC50 is the concentration that inhibits the measured activity by half. With `C=CC(=O)N1CCc2ccc(NCc3ccccc3)cc2C1` [P-0089, 1-(7-(benzylamino)-3,4-dihydroisoquinolin-2(1H)-yl)prop-2-en-1-one], the IC50 was in the range of 0.001 to 0.5 µM.

As for `C=CC(=O)N1CCc2ccc(OCC3CC4C(C3)C4(F)F)cc2C1` (stereo not shown) [P-0111, 1-(7-((6,6-difluorobicyclo[3.1.0]hexan-3-yl)methoxy)-3,4-dihydroisoquinolin-2(1H)-yl)prop-2-en-1-one], the IC50 fell in the range of 0.001 to 0.5 µM.

For the compound `C=CC(=O)N1CCc2cc(C)c(Oc3ccc(C(F)(F)F)c(F)c3)cc2C1` [P-0099, 1-(7-(3-fluoro-4-(trifluoromethyl)phenoxy)-6-methyl-3,4-dihydroisoquinolin-2(1H)-yl)prop-2-en-1-one], the IC50 was 0.001 to 0.5 µM.

For the compound `C=CC(=O)N1CCc2ccc(N[C@H]3CC[C@H](C(F)(F)F)CC3)cc2C1` [P-0056, 1-(7-(((1r,4r)-4-(trifluoromethyl)cyclohexyl)amino)-3,4-dihydroisoquinolin-2(1H)-yl)prop-2-en-1-one], the IC50 lay in the range of 0.001 to 0.5 µM.

With `C=CC(=O)N1CCc2ccc(OC3CCCCC3)cc2C1` [P-0061, 1-(7-(cyclohexyloxy)-3,4-dihydroisoquinolin-2(1H)-yl)prop-2-en-1-one], the IC50 was 0.001 to 0.5 µM.

For the compound `O=C(/C=C/Cn1ccnc1)N1CCc2ccc(Oc3ccc(C(F)(F)F)cc3)cc2C1` [P-0119, (E)-4-(1H-imidazol-1-yl)-1-(7-(4-(trifluoromethyl)phenoxy)-3,4-dihydroisoquinolin-2(1H)-yl)but-2-en-1-one], the IC50 was 0.001 to 0.5 µM.

Turning to `C=CC(=O)N1CCc2ccc(Oc3cccnc3)cc2C1` [P-019, 1-(7-(pyridin-3-yloxy)-3,4-dihydroisoquinolin-2(1H)-yl)prop-2-en-1-one], the IC50 is 0.001 to 0.5 µM.

For the compound `C=CC(=O)N1CCc2ccc(Oc3ccc(C4(C)CC4)cc3)cc2C1` [P-0109, 1-(7-(4-(1-methylcyclopropyl)phenoxy)-3,4-dihydroisoquinolin-2(1H)-yl)prop-2-en-1-one], the 50% inhibitory concentration (IC50) lay in the range of 0.001 to 0.5 µM.

Regarding `C=CC(=O)N1CCc2ccc(OC3CCC(F)(F)C3)cc2C1` (stereo not shown) [P-0085, 1-(7-((3,3-difluorocyclopentyl)oxy)-3,4-dihydroisoquinolin-2(1H)-yl)prop-2-en-1-one], the IC50 lay within 0.001 to 0.5 µM.

Regarding `C/C=C/C(=O)N1CCc2ccc(Oc3ccc(C(F)(F)F)cc3)cc2C1` [P-0123, (E)-1-(7-(4-(trifluoromethyl)phenoxy)-3,4-dihydroisoquinolin-2(1H)-yl)but-2-en-1-one], the half-inhibitory concentration (IC50) fell in the range of 0.001 to 0.5 µM.

In the case of `C=C(CO)C(=O)N1CCc2ccc(Oc3cccc(F)c3)cc2C1` [P-0038, 1-(7-(3-fluorophenoxy)-3,4-dihydroisoquinolin-2(1H)-yl)-2-(hydroxymethyl)prop-2-en-1-one], the IC50 is 0.001 to 0.5 µM.

As for `C=CC(=O)N1CCc2ccc(Oc3ccccc3F)cc2C1` [P-0063, 1-(7-(2-fluorophenoxy)-3,4-dihydroisoquinolin-2(1H)-yl)prop-2-en-1-one], the IC50 was 0.001 to 0.5 µM.

Turning to `C=CC(=O)N1CCc2ccc(NC34CCC(CC3)CC4)cc2C1` [P-0054, 1-(7-(bicyclo[2.2.2]octan-1-ylamino)-3,4-dihydroisoquinolin-2(1H)-yl)prop-2-en-1-one formate], the IC50 lay in the range of 0.001 to 0.5 µM.

For `C=CC(=O)N1CCc2ccc(Oc3ccccn3)cc2C1` [P-0059, 1-(7-(pyridin-2-yloxy)-3,4-dihydroisoquinolin-2(1H)-yl)prop-2-en-1-one], the IC50 was over 20 µM.

With `C=CC(=O)N1CCc2ccc(Oc3cccc(C(F)(F)F)n3)cc2C1` [P-0069, 1-(7-((6-(trifluoromethyl)pyridin-2-yl)oxy)-3,4-dihydroisoquinolin-2(1H)-yl)prop-2-en-1-one], the IC50 lay in the range of 0.5 to 20 µM.

As to `C=CC(=O)N1CCc2ccc(O[C@H]3C[C@@H]4[C@H](C3)C4(F)F)cc2C1` [P-0075, 1-(7-(((1R,3r,5S)-6,6-difluorobicyclo[3.1.0]hexan-3-yl)oxy)-3,4-dihydroisoquinolin-2(1H)-yl)prop-2-en-1-one], the IC50 was 0.001 to 0.5 µM.
